Numbers after ± are expanded uncertainties.
Experiments:
[1] = refractive index (Na D-line) (dimensionless); xn = mol fraction of the nth substance listed; settings: 101 kPa, Liquid, Standard Abbe refractometry, x2 = 0.8
[2] = xn = mol fraction of the nth substance listed; settings: 101 kPa, Liquid, Cone and plate viscometry, x2 = 0.8

CC[P+](c1ccccc1)(c1ccccc1)c1ccccc1.[I-] [ethyltriphenylphosphonium iodide] + O=S1(=O)CCCC1
Settings	refractive index, 298.15 K	refractive index, 303.15 K	refractive index, 313.15 K	refractive index, 323.15 K	refractive index, 333.15 K	viscosity, 298.15 K [mPa·s]	viscosity, 308.15 K [mPa·s]	viscosity, 318.15 K [mPa·s]	viscosity, 328.15 K [mPa·s]	viscosity, 338.15 K [mPa·s]
[1]	1.516 ± 0.0004	1.5142 ± 0.0004	1.5104 ± 0.0004	1.5069 ± 0.0004	1.5033 ± 0.0004	–	–	–	–	–
[2]	–	–	–	–	–	95.03 ± 9.6	52.14 ± 5.3	24.15 ± 2.4	15.24 ± 1.5	9.578 ± 0.97
